Assay results reported in patent publication US9040523B2, “Antifungal 5,6-dihydro-4H-pyrrolo[1,2-α][1,4]-benzodiazepines and 6H-pyrrolo[1,2-α][1,4]benzodiazepines substituted with benzene derivatives” (JANSSEN PHARMACEUTICA NV, priority 2010, dated 2015).

Legend:
Assay in all cases: Human liver microsomal cytochrome P450 cocktail inhibition assay, Protocol C
Cytochrome P450 2C8 = molecular target: T1, Cytochrome P450 2C8 (Homo sapiens, UniProt P10632); assay type: in vitro ADME; conditions: human liver microsomes 0.2 mg/ml; probe amodiaquine 2 microM; read-out: 2C8_Amod pIC50 (converted)
T1 construct: tissue BD Gentest; host or cells: human liver microsomes
T1 sequence (P10632 1-490): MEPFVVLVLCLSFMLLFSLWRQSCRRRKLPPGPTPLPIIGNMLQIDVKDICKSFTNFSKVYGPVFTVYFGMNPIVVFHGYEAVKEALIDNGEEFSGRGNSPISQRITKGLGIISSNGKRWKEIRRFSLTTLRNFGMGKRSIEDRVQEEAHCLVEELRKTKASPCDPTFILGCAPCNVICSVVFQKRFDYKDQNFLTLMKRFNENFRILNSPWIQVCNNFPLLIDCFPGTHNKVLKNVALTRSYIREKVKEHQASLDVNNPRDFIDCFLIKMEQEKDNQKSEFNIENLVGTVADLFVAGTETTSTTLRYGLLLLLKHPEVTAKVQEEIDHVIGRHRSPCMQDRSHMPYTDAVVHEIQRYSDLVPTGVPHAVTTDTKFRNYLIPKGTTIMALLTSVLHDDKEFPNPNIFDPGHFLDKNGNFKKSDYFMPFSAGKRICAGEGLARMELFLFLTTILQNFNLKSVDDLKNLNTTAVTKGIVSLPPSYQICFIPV
Protocol: (§1) Probe substrates and final assay concentrations with the appropriate internal standard are outlined in Table 6a.
(§2) Assays were performed in 0.1 M phosphate buffer (pH 7.4), containing 0.2 mg/ml human liver microsomes (BD Gentest) and a probe substrate mix consisting of: phenacetin, tolbutamide, S-mephenyloin, dextromethorphan, amodiaquine and midazolam (Table 6a) and a range of test compound concentrations (0 to 30 micromolar) in a total volume of 100 microliters. After a 10 min pre-incubation at 37° C., the reaction was started with addition of NADPH at a final concentration of 1.0 mM. […] The samples are centrifuged for 10 min at 4° C. at 4000 rpm and 60 microliters supernatant is diluted with 180 microliters water. Each sample is injected onto a UPLC/MS system for the simultaneous measurement of the probe substrate metabolites and their associated deuterated internal standards. Percentage inhibition is calculated according to: %-inhibition=(1−Ri/R)*100, whereby Ri and R are the metabolite to internal standard peak area ratios in the presence and absence of inhibitor respectively.
(§3) Percentage inhibition data are plotted against the Log transformed test compound concentration and after curve fitting the IC50-value is determined.

Cytochrome P450 2D6 = Cytochrome P450 2D6 (Homo sapiens, UniProt P10635); conditions: 2D6_Dextro pIC50, human liver microsomes 0.2 mg/ml; probe dextromethorphan 3 microM
Protocol: as §1, §2, §3

Cytochrome P450 2C19 = Cytochrome P450 2C19 (Homo sapiens, UniProt P33261); conditions: 2C19_S-Meph pIC50, human liver microsomes 0.2 mg/ml; probe S-mephenytoin 30 microM
Protocol: as §1, §2, §3

Cytochrome P450 2C9 = Cytochrome P450 2C9 (Homo sapiens, UniProt P11712); conditions: 2C9 Tolbut pIC50, human liver microsomes 0.2 mg/ml; probe tolbutamide 100 microM
Protocol: as §1, §2, §3

Cytochrome P450 1A2 = molecular target: T2, Cytochrome P450 1A2 (Homo sapiens, UniProt P05177)
T2 sequence (P05177 1-516): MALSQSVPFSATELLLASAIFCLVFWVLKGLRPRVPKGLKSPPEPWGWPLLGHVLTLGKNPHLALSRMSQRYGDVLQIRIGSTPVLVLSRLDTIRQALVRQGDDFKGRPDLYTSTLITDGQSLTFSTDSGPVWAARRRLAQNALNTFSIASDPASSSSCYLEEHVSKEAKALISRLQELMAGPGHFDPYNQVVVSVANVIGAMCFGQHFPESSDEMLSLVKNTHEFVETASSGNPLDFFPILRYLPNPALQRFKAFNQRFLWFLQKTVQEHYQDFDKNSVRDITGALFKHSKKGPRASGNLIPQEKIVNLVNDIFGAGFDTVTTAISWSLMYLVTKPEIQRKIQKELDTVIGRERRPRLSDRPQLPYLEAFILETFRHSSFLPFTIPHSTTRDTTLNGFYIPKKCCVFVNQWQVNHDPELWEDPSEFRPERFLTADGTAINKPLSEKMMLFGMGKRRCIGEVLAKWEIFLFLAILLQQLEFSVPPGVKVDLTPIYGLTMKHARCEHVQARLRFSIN
Protocol: as §1, §2, §3

Cytochrome P450 2C9, sequence (P11712 whole entry): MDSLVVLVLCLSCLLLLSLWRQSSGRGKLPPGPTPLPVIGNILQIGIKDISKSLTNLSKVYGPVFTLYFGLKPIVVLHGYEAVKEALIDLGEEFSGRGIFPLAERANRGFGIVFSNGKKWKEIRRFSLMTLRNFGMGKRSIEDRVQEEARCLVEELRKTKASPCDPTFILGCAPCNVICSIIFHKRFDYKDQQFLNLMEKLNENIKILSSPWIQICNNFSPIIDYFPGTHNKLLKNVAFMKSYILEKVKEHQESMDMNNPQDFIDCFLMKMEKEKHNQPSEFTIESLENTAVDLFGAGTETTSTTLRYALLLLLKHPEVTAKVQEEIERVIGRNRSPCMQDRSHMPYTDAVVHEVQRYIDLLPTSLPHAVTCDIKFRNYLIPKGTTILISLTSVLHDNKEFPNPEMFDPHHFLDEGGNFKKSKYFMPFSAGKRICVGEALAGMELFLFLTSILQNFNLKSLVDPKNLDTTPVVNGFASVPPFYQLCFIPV
Cytochrome P450 2D6, sequence (P10635 whole entry): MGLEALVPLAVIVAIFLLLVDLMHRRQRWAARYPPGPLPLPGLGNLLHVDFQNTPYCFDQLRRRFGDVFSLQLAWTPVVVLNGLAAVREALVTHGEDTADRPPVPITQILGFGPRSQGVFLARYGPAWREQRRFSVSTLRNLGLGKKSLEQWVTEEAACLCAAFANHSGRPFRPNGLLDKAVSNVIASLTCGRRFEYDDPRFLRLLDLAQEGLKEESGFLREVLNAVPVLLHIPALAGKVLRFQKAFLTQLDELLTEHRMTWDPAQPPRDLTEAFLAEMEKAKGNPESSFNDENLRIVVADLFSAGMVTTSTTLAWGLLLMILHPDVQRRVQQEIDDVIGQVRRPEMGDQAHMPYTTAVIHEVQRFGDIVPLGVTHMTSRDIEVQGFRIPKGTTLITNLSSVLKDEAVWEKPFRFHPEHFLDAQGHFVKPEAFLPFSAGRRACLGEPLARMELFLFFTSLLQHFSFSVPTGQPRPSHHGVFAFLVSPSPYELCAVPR
Cytochrome P450 2C19, sequence (P33261 whole entry): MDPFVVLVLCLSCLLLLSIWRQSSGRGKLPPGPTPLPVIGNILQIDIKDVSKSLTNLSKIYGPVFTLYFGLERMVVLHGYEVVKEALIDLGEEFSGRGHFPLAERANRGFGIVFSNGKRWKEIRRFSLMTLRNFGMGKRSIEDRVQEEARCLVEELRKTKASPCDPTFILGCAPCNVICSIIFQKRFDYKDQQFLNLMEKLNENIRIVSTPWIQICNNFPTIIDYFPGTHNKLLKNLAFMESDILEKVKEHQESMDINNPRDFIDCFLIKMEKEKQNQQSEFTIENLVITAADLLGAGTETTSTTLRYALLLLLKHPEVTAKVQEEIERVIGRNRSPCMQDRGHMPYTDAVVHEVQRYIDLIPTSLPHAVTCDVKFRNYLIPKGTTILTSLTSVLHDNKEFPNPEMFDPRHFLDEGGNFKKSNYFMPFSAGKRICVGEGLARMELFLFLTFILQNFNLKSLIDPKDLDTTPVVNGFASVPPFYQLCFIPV

For `CCc1ccc(C2=NCc3c(Cl)cccc3-n3cccc32)cc1` [drawing 92], the IC50 (Cytochrome P450 2C8) was > 10 µM, the IC50 (Cytochrome P450 2D6) was > 10 µM and the IC50 (Cytochrome P450 2C19) was 1.58 µM. The IC50 (Cytochrome P450 2C9) was > 10 µM and the IC50 (Cytochrome P450 1A2) was > 10 µM.

In the case of `CS(=O)(=O)c1ccc(C2=NCc3c(Cl)cccc3-n3cccc32)cc1` [drawing 93], the IC50 (Cytochrome P450 2C8) is reported as > 10 µM, the IC50 (Cytochrome P450 2D6) is reported as 7.59 µM and the IC50 (Cytochrome P450 2C19) is reported as > 10 µM. The IC50 (Cytochrome P450 2C9) was > 10 µM and the IC50 (Cytochrome P450 1A2) was > 10 µM.

`CC(=O)c1ccc(C2NCc3c(Cl)cccc3-n3cccc32)cc1` (stereo not drawn) [drawing 94] was tested, and the IC50 (Cytochrome P450 2D6) was 3.16 µM, the IC50 (Cytochrome P450 2C19) was 3.16 µM and the IC50 (Cytochrome P450 2C9) was 3.16 µM. The IC50 (Cytochrome P450 1A2) was > 10 µM.

`CC(O)c1ccc(C2NCc3c(Cl)cccc3-n3cccc32)cc1` (stereo not drawn) [drawing 97] was tested, and the IC50 (Cytochrome P450 2C8) was > 10 µM, the IC50 (Cytochrome P450 2D6) was > 10 µM and the IC50 (Cytochrome P450 2C19) was 5.13 µM. For the same molecule, the IC50 (Cytochrome P450 2C9) was > 10 µM and the IC50 (Cytochrome P450 1A2) was > 10 µM.

With `CC(=O)c1cccc(C2NCc3c(Cl)cccc3-n3cccc32)c1` (stereo not drawn) [drawing 99] the IC50 (Cytochrome P450 2C8) was 7.94 µM, the IC50 (Cytochrome P450 2D6) was 3.16 µM and the IC50 (Cytochrome P450 2C19) was 0.158 µM. For the same molecule, the IC50 (Cytochrome P450 2C9) was 1.58 µM and the IC50 (Cytochrome P450 1A2) was > 10 µM.
